Experiments:
Assay in all cases: Bliss excess, mean over the matrix (fraction); higher = more synergy
[1] = test system: COLO-680N (Esophageal Squamous Cell Carcinoma)
Outline: (§1)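 Cell lines grown in DMEM/F12 or RPMI with 10% FBS were plated in 1536-well plates and held 24 hours at 37°C, 5% CO2 before 72 hours of exposure to two-drug dose matrices, with DMSO typically at 0.2%. CellTiter-Glo 2.0 luminescence gave viability, which was converted to inhibition. Vehicle wells were set to 0 and blank wells to 1. Combination Emax is the second-highest inhibition in the matrix, and Bliss excess is the observed combination effect minus the expected EA + EB − EA·EB, where EA and EB are the single-agent effects.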

[2] = test system: 23132-87 (Gastric Carcinoma)
Outline: as §1

[3] = test system: RERF-LC-Sq1 (Squamous Cell Lung Carcinoma)
Outline: as §1

[4] = test system: LB996-RCC (Kidney Carcinoma)
Outline: as §1

[5] = test system: LN-229 (Glioblastoma)
Outline: as §1

[6] = test system: RERF-GC-1B (Gastric Carcinoma)
Outline: as §1

[7] = test system: VAL (B-Cell Non-Hodgkin's Lymphoma)
Outline: as §1

[8] = test system: NCI-H23 (Lung Adenocarcinoma)
Outline: as §1

[9] = test system: HEC-1 (Endometrial Carcinoma)
Outline: as §1

[10] = test system: GB-1 (Glioblastoma)
Outline: as §1

[11] = test system: CAL-120 (Breast Carcinoma)
Outline: as §1

[12] = test system: HSC-39 (Gastric Carcinoma)
Outline: as §1

[13] = test system: GP5d (Colorectal Carcinoma)
Outline: as §1

[14] = test system: MFE-280 (Endometrial Carcinoma)
Outline: as §1

[15] = test system: IST-MES1 (Mesothelioma)
Outline: as §1

[16] = test system: NCI-H2342 (Lung Adenocarcinoma)
Outline: as §1

[17] = test system: SU-DHL-10 (B-Cell Non-Hodgkin's Lymphoma)
Outline: as §1

[18] = test system: MKN45 (Gastric Carcinoma)
Outline: as §1

[19] = test system: RCM-1 (Colorectal Carcinoma)
Outline: as §1

[20] = test system: OAW-42 (Ovarian Carcinoma)
Outline: as §1

SMILES | Bliss excess [1] | Bliss excess [2] | Bliss excess [3] | Bliss excess [4] | Bliss excess [5] | Bliss excess [6] | Bliss excess [7] | Bliss excess [8] | Bliss excess [9] | Bliss excess [10] | Bliss excess [11] | Bliss excess [12] | Bliss excess [13] | Bliss excess [14] | Bliss excess [15] | Bliss excess [16] | Bliss excess [17] | Bliss excess [18] | Bliss excess [19] | Bliss excess [20]
COc1cccc(OCCCN)c1-c1cc(Nc2cnc(C#N)cn2)n[nH]1 [Prexasertib] + CN(C)CCCOc1ccc(-c2ccc3ncc4c(c3c2)n(C2CCOCC2)c(=O)n4C)cn1 [AZD0156] (first compound max 1 µM, 7x7, partner max 1 µM) | -0.0393 | -0.0009 | -0.0209 | 0.0028 | -0.035 | 0.0049 | -0.0162 | -0.0245 | -0.0146 | -0.0079 | 0.0088 | -0.0196 | 0.0215 | -0.0219 | -0.0211 | -0.0272 | -0.049 | -0.0645 | -0.0358 | 
COc1cccc(OCCCN)c1-c1cc(Nc2cnc(C#N)cn2)n[nH]1 [Prexasertib] + C[C@@H]1COCCN1C2=NC(=NC(=C2)C3(CC3)[S@](=N)(=O)C)C4=C5C=CNC5=NC=C4 [AZD6738] (first compound max 1 µM, 7x7, partner max 10 µM) | 0.0342 | -0.0085 | -0.0492 | 0.0355 | -0.0577 | -0.119 | -0.0637 | -0.0504 | -0.0434 | -0.0337 | 0.0093 | -0.0067 | -0.0157 | -0.024 | 0.0093 | 0.0378 | -0.0067 | -0.0931 | -0.0307 | 
COc1cccc(OCCCN)c1-c1cc(Nc2cnc(C#N)cn2)n[nH]1 [Prexasertib] + Cc1cc2ncnn2cc1Nc1ncc2c(n1)n(C1CCOCC1)c(=O)n2C [AZD7648] (first compound max 1 µM, 7x7, partner max 10 µM) | -0.0491 | -0.0365 | -0.0281 | 0.0292 | -0.0596 | 0.0015 | -0.0204 | -0.026 | 0.0762 | 0.0387 | 0.0045 | 0.008 | 0.033 | 0.0032 | -0.0032 | -0.0216 | -0.045 | -0.0229 | -0.0166 | 
COc1cccc(OCCCN)c1-c1cc(Nc2cnc(C#N)cn2)n[nH]1 [Prexasertib] + O=C(c1cc(Cc2n[nH]c(=O)c3ccccc23)ccc1F)N1CCN(C(=O)C2CC2)CC1 [Olaparib] (first compound max 1 µM, 7x7, partner max 10 µM) | -0.0652 | -0.0503 | -0.0373 | -0.0145 | -0.181 | -0.0275 | -0.0518 | -0.0675 | -0.0535 | -0.0002 | -0.0552 | 0.0127 | -0.0179 | -0.0223 | -0.0105 | -0.0509 | 0.0083 | -0.044 | -0.196 | 
COc1cc2c(cc1OCCCCCOc1cc3c(cc1OC)C(=O)N1C=C(C)C[C@H]1C=N3)N=C[C@@H]1CC(C)=CN1C2=O [SG3199] + O=C(c1cc(Cc2n[nH]c(=O)c3ccccc23)ccc1F)N1CCN(C(=O)C2CC2)CC1 [Olaparib] (first compound max 0.001 µM, 7x7, partner max 10 µM) | -0.043 | 0.0217 | 0.0049 | 0.0077 | -0.0454 | 0.0263 | -0.0069 | 0.0008 | 0.0483 | -0.0328 | -0.0329 | -0.0067 | -0.0206 | -0.0092 | -0.0402 | -0.0569 | -0.0177 | -0.0633 | -0.0371 | 
CCc1c2c(nc3ccc(O)cc13)-c1cc3c(c(=O)n1C2)COC(=O)[C@]3(O)CC [SN-38] + CN(C)CCCOc1ccc(-c2ccc3ncc4c(c3c2)n(C2CCOCC2)c(=O)n4C)cn1 [AZD0156] (first compound max 0.3 µM, 7x7, partner max 1 µM) | 0.0306 | 0.0322 | 0.114 | 0.0011 | -0.0305 | 0.0092 | 0 | -0.0247 | -0.0374 | -0.0374 | -0.0792 | 0.0344 | 0.0624 | -0.0605 | 0.0085 | -0.0425 | -0.0242 | -0.049 | -0.0005 | 
C[C@@H](c1ccc2nccn2c1)n1nnc2ncc(-c3cnn(C)c3)nc21 [Savolitinib] + CN(CC[C@H](CSC1=CC=CC=C1)NC2=C(C=C(C=C2)S(=O)(=O)NC(=O)C3=CC=C(C=C3)N4CCC(CC4)[C@H](C5=CC=CC=C5C6=CC=C(C=C6)Cl)O)S(=O)(=O)C(F)(F)F)CCO [AZD4320] (first compound max 1 µM, 7x7, partner max 1 µM) |  | -0.0618 | -0.0075 | -0.0392 | -0.0833 | -0.0404 |  | 0.0248 | -0.027 | -0.0653 | -0.0325 |  | -0.0339 |  |  |  | -0.0067 |  |  | -0.0451

Source: the supplement of paper PMC11061612
